The values below come from the Kinase Knowledgebase extract (Sharma et al. 2016).

A value given as a limit tells only on which side of the number the result lay.

In general, IC50 refers to the point on the concentration scale where inhibition reaches its midpoint.

Chain of PIK3CA (human) (P42336 whole entry, looked up): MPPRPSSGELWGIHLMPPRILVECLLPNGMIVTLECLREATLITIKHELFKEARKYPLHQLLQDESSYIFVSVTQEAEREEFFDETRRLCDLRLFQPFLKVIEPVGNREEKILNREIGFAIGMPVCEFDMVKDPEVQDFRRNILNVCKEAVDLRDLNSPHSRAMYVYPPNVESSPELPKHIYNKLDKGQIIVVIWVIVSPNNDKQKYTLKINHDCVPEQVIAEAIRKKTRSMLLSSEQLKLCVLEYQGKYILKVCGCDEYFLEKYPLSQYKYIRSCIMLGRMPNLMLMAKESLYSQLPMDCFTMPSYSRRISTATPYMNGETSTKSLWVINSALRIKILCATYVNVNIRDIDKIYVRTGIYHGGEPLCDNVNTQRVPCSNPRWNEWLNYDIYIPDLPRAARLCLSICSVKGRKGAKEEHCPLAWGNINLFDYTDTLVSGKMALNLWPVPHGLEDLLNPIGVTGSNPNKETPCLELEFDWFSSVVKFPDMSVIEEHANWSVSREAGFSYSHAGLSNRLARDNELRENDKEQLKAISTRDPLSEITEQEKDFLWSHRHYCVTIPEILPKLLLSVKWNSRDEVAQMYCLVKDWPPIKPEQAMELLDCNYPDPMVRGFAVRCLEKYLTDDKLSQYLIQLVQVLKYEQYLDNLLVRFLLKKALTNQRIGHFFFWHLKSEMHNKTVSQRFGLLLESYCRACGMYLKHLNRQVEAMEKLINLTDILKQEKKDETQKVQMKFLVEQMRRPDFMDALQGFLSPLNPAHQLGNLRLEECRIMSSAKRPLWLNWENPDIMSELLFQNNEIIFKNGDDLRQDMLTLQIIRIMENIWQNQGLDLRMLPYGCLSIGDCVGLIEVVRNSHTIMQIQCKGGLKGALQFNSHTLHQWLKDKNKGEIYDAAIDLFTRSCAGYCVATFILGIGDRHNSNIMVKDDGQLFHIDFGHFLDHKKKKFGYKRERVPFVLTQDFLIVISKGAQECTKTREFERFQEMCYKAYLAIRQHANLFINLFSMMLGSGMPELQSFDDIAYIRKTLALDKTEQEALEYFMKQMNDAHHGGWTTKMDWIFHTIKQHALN

The assay addresses PIK3CA (human) (UniProt P42336). Kind of assay: Assessment of PI3KCA Kinase Activity.
Compound `Nc1nc2c(-c3cc(-c4ccc(Cl)cc4Cl)c(-c4ncc[nH]4)s3)ncnc2s1` yielded a half-maximal inhibitory concentration (IC50) of under 100 nM.

`CC(=O)Nc1cc(-c2nc(-c3ccc(C(F)(F)F)cc3)c(-c3ncc[nH]3)s2)ccn1` came in with an IC50 of under 100 nM.

`CCNc1nccc(-c2sc(-c3nnc[nH]3)c(-c3ccc(Cl)cc3Cl)c2C#N)n1` showed a half-inhibitory concentration (IC50) of under 100 nM.

For `CC(=O)Nc1cc(-c2nc(-c3ccc(N(C)C)cc3)c(-c3ncc[nH]3)s2)ccn1`, the IC50 lay within 100 to 1000 nM. The value for `N#Cc1c(-c2ccncc2)sc(-c2nnc[nH]2)c1-c1ccc(Cl)cc1Cl` was 100 to 1000 nM. With `Cc1nn2ccccc2c1-c1nc(-c2cccc3ncccc23)c(-c2nc[nH]n2)s1` the figure was 100 to 1000 nM; with `CC(=O)Nc1cc(-c2nc(-c3ccc(Cl)cc3Cl)c(-c3ncc[nH]3)s2)ncn1`, under 100 nM; with `CC(C)(C)OC(=O)Nc1cc(-c2sc(-c3nnc[nH]3)c(-c3ccc(Cl)cc3Cl)c2C#N)ccn1`, 100 to 1000 nM. The value for `Cc1nn2ccc(OCCN3CCC(F)(F)CC3)cc2c1-c1nc(-c2ccccc2)c(-c2nc[nH]n2)s1` was under 100 nM. `N#Cc1c(-c2ccnc(N)c2)sc(-c2cnn[nH]2)c1-c1ccc(Cl)cc1Cl` gave a concentration for half-maximal inhibition (IC50) of 100 to 1000 nM. Regarding `Cc1nn2ccsc2c1-c1nc(OCc2ccccc2)c(-c2nnc[nH]2)s1`, the IC50 was under 100 nM. With `Cc1nn2ccc(OCCN3CCN(C)CC3)cc2c1-c1nc(-c2ccccc2)c(-c2nc[nH]n2)s1` the figure was under 100 nM; with `COC(=O)Nc1cc(-c2cc(-c3ccc(Cl)cc3Cl)c(-c3ncc[nH]3)s2)ccn1`, under 100 nM; with `CC(=O)NCCOc1ccn2nc(C)c(-c3nc(-c4ccccc4)c(-c4nc[nH]n4)s3)c2c1`, under 100 nM. The value for `COC(=O)Nc1cc(-c2nc(-c3ccc(Cl)cc3Cl)c(-c3nnc(N)[nH]3)s2)ccn1` was under 100 nM; that for `CCOc1nc(-c2ccnc(NC(=O)C(C)C)c2)sc1-c1nnc[nH]1` was 100 to 1000 nM.

`Cc1nn2ccccc2c1-c1nc(-c2cnn(Cc3cccnc3)c2)c(-c2nc[nH]n2)s1` came in with a half-maximal inhibitory concentration (IC50) of 100 to 1000 nM.

For the compound `O=C(CCN1CCOCC1)Nc1cc(-c2nc(-c3ccccc3)c(-c3nnc[nH]3)s2)ccn1`, the half-maximal inhibitory concentration (IC50) was in the range of 100 to 1000 nM. With `Cc1nn2ccccc2c1-c1nc(Cc2ccccc2)c(-c2nnc[nH]2)s1` the figure was 100 to 1000 nM. The value for `Cc1nn2ccccc2c1-c1nc(C2CCOCC2)c(-c2nnc[nH]2)s1` was under 100 nM; that for `CCNC(=O)Nc1cc(-c2nc(OCC)c(-c3nc[nH]n3)s2)ccn1` was 100 to 1000 nM; that for `Cc1nn2ccc(OCCNC(=O)C(C)(C)C)cc2c1-c1nc(-c2ccccc2)c(-c2nc[nH]n2)s1` was under 100 nM. The compound `Cc1nn2ccccc2c1-c1nc(-c2cnc3ccccc3c2)c(-c2nc[nH]n2)s1` came in with a half-maximal inhibitory concentration (IC50) of under 100 nM.

`COC[C@@H]1CCCN1CCC(=O)Nc1cc(-c2nc(-c3ccccc3)c(-c3nnc[nH]3)s2)ccn1` had a concentration for half-maximal inhibition (IC50) of 100 to 1000 nM. `CC(=O)Nc1cc(-c2sc(-c3cnc[nH]3)c(-c3ccc(Cl)cc3Cl)c2C#N)ccn1`: the IC50 was under 100 nM. As to `Cc1nc2ccc(CN3CCNCC3)cn2c1-c1nc(-c2ccccc2)c(-c2nnc[nH]2)s1`, the IC50 is under 100 nM. As for `COCC(=O)Nc1cc(-c2sc(-c3nnc[nH]3)c(-c3ccc(Cl)cc3Cl)c2C#N)ccn1`, the IC50 was under 100 nM. As to `Cc1cc(C(=O)Nc2cc(-c3sc(-c4nnc[nH]4)c(-c4ccc(Cl)cc4Cl)c3C#N)ccn2)no1`, the IC50 was in the range of 100 to 1000 nM. The value for `COCCCNc1nccc(-c2sc(-c3nnc[nH]3)c(-c3ccc(Cl)cc3Cl)c2C#N)n1` was under 100 nM; that for `Cc1nn2ccsc2c1-c1nc(-c2ccccc2)c(-c2ccn[nH]2)s1` was under 100 nM. Compound `O=C(Nc1cc(-c2nc(-c3ccc(Cl)cc3Cl)c(-c3ncc[nH]3)s2)ccn1)C1CC1` came in with a concentration for half-maximal inhibition (IC50) of under 100 nM.

For the compound `N#Cc1c(-c2ccnc(NC(=O)CN)c2)sc(-c2nnc[nH]2)c1-c1ccc(Cl)cc1Cl`, the 50% inhibitory concentration (IC50) was under 100 nM. As to `Cc1nn2ccccc2c1-c1nc(-c2ccc(CO)cc2)c(-c2nc[nH]n2)s1`, the IC50 was under 100 nM. With `CC(=O)Nc1cc(-c2nc(-c3ccc(C(=O)N4CCNCC4)cc3)c(-c3ncc[nH]3)s2)ccn1` the figure was 100 to 1000 nM. The value for `Cc1nn2ccccc2c1-c1nc(-c2cc(C=O)ccc2Cl)c(-c2nnc[nH]2)s1` was under 100 nM; that for `C[C@H](O)C(=O)Nc1cc(-c2sc(-c3nnc[nH]3)c(-c3ccc(Cl)cc3Cl)c2C#N)ccn1` was 100 to 1000 nM; that for `COC(=O)c1cnc(-c2sc(-c3ccnc(NC(C)=O)c3)c(C#N)c2-c2ccc(Cl)cc2Cl)[nH]1` was 100 to 1000 nM.

The compound `Cc1ccc(-c2nc(-c3c(C)nn4ccccc34)sc2-c2nc[nH]n2)s1` showed an IC50 of under 100 nM. The value for `Cc1nc2ccc(CN3CC[C@H](N)C3)cn2c1-c1nc(-c2ccccc2)c(-c2nnc[nH]2)s1` was under 100 nM; that for `Cc1nn2ccc(OCCN3CCN(S(C)(=O)=O)CC3)cc2c1-c1nc(-c2ccccc2)c(-c2nc[nH]n2)s1` was under 100 nM; that for `Cc1n[nH]c(C)c1-c1nc(-c2c(C)nn3ccccc23)sc1-c1nc[nH]n1` was under 100 nM. The value for `CC(=O)Nc1cc(-c2sc(-c3nnc[nH]3)c(-c3ccc(Cl)cc3Cl)c2C#N)c(F)cn1` was 100 to 1000 nM; that for `CC(=O)N1CCN(Cc2ccc3nc(C)c(-c4nc(-c5ccccc5)c(-c5nc[nH]n5)s4)n3c2)CC1` was under 100 nM. In turn, `CC(=O)Nc1cc(-c2nc(-c3ccccc3)c(-c3ncc[nH]3)s2)ccn1` displayed an IC50 of 100 to 1000 nM. Consider `CC(=O)Nc1cc(-c2cc(-c3ccc(Cl)cc3Cl)c(-c3ncc[nH]3)s2)ccn1`, for which the IC50 is under 100 nM.

In the case of `Cc1nn2ccc(OCc3ccc(C(F)(F)F)nc3)cc2c1-c1nc(-c2ccccc2)c(-c2nc[nH]n2)s1`, the IC50 was under 100 nM. With `CC(=O)Nc1cc(-c2nc(-c3ccc(Oc4ccccc4)cc3)c(-c3ncc[nH]3)s2)ccn1` the figure was 100 to 1000 nM. The value for `COc1cccc(F)c1-c1ccc2nc(C)c(-c3nc(-c4ccccc4)c(-c4nc[nH]n4)s3)n2c1` was 100 to 1000 nM; that for `COc1ccc(-c2nc(-c3c(C)nn4ccccc34)sc2-c2nc[nH]n2)c(OC)c1` was under 100 nM.

The compound `COC(=O)c1ccc(-c2nc(-c3ccnc(NC(C)=O)c3)sc2-c2ncc[nH]2)cc1` had an IC50 of 100 to 1000 nM. On to `Cc1nn2ccccc2c1-c1nc(-c2ccccc2N)c(-c2nc[nH]n2)s1`, for which the IC50 was under 100 nM. The compound `CC(=O)Nc1cc(-c2nc(-c3cccc(C)c3)c(-c3ncc[nH]3)s2)ccn1` had a half-maximal inhibitory concentration (IC50) of 100 to 1000 nM. The value for `Cc1nn2ccc(OCCN3CCN(C)C(=O)C3)cc2c1-c1nc(-c2ccccc2)c(-c2nc[nH]n2)s1` was under 100 nM.

Consider `C=Cc1ccc2nc(C)c(-c3nc(-c4ccccc4)c(-c4nc[nH]n4)s3)n2c1`, for which the IC50 was under 100 nM. The value for `Cc1nn2ccc(OCCNC(=O)C(C)(C)N)cc2c1-c1nc(-c2ccccc2)c(-c2nc[nH]n2)s1` was under 100 nM.

Compound `Nc1cc(-c2nc(-c3ccc(Cl)cc3Cl)c(-c3ncc[nH]3)s2)ccn1` showed an IC50 of under 100 nM. With `O=C1CCc2c(-c3nc(-c4ccc(Cl)cc4Cl)c(-c4ncc[nH]4)s3)ccnc2N1` the figure was under 100 nM; with `c1ccc(-c2nc(-c3ccnc4ccsc34)sc2-c2nnc[nH]2)cc1`, under 100 nM; with `Cc1nn2ccccc2c1-c1nc(-c2cnn(C)c2C)c(-c2nc[nH]n2)s1`, under 100 nM.
